Like-named read-outs stand apart in the source and are kept apart here.
What was measured:
[1] = molecular target: Recombinant human Bcl-2 protein (Homo sapiens (Human), UniProt P10415); assay: Bcl-2 TR-FRET Assay; type: binding
Method in brief: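 In pH 7.5 phosphate buffer containing NaCl, EDTA, Tween-20 and BSA, 0.05 nM Bcl-2 saw serially diluted compound for 0.5 h before 0.5 nM FITC-Bak peptide was added. Signal ratio at 520/490 nm after 1 h yielded IC50.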

[2] = test system: recombinant human Bcl-2-G101V protein; assay: Bcl-2-G101V TR-FRET Assay; type: binding; details: for ratio of IC50 of Bcl-2 G101V/Bcl-2 wt, compared with Example F132b in WO2019210828 and ABT-199 (venetoclax): comparison in words; for Ratio of Bcl-2 G101V/WT: ratio of biochemical IC50 Bcl-2 G101V / Bcl-2 WT
Method in brief: (§1)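 Percent inhibition of the Bcl-2-G101V–ligand interaction was computed from the 490 nm to 520 nm emission ratio after 337 nm excitation, over increasing compound concentrations; a four-parameter logistic fit gave IC50.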

[3] = molecular target: recombinant human Bcl-2-G101V protein (Homo sapiens (Human), UniProt P10415, G101V); assay: Bcl-2-G101V TR-FRET Assay; type: binding; details: Bcl-2 G101V mutant, TR-FRET; read-out: Biochemical assay (IC50, nM) Bcl-2 G101V
Method in brief: as §1

Mouse PK Study = type: in vivo; details: plasma, male CD-1 mouse
Description: Biological Example: Mouse PK Study
The pharmacokinetics of compounds were evaluated in male CD-1 mouse via Intravenous (dose of 1 mg/kg) and Oral Administration (dose of 10 mg/kg). For intravenous administration study, test compounds were dissolved in DMSO/EtOH/Cremophor EL/D5W (2.5/10/20/67.5, by volume) and injected with a 1 mg/kg dose via tail vein. For oral administration study, test compounds were dissolved in PEG400/Phosal 50 PG/EtOH (30/60/10, by volume) and administrated to mice at 10 mg/kg by gavage. Blood was collected into EDTA-K2 anticoagulant tube at 5 (IV only). 15, and 30 min and 1, 2, 4, 8 and 24 h after administration. Approximately 30 μL blood was collected at each time point. And then the blood was centrifuged at 3000 g for 5 min at 4° C. using a centrifuge to obtain the plasma. The plasma sample was transferred into a tube and stored in a freezer at approximately −20° C. until the determination of concentration by LC-MS/MS. Pharmacokinetic parameter were estimated by using WinNonlin software (version 8.1, Pharsight Corporation, CA, USA) with non-compartmental method. The following pharmacokinetic parameters were calculated, whenever possible from the plasma concentration-time data: CL, Vd, T1/2, AUClast, AUCinf for IV administration and Tmax, Cmax, AUClast, AUCinf, T1/2 for PO administration. All animals are free fed before experiment. For comparison purpose, the PK results of certain compounds in previous disclosure were obtained using the same methods.

[4] = Bcl-2 wild type, TR-FRET, read-out: Biochemical assay (IC50, nM) Bcl-2 WT
[5] = wild type Bcl-2, unit inferred, read-out: Bcl-2 WT

| SMILES | IC50 [1, 4] [nM] | IC50 [1, 5] [nM] | ratio of IC50 of Bcl-2 G101V/Bcl-2 wt, compared with Example F132b in WO2019210828 and ABT-199 (venetoclax) [2] | Ratio of Bcl-2 G101V/WT [2] | IC50 [3] [nM] | AUC(0-t) (Mouse PK Study; Iv dosing (1 mg/kg)) [ng·h/mL] | Vd (Mouse PK Study; Iv dosing (1 mg/kg)) [L/kg] | clearance (Mouse PK Study; Iv dosing (1 mg/kg)) [mL/min/kg] | AUC(0-t) (Mouse PK Study; Po dosing (10 mg/kg)) [ng·h/mL] | Cmax (Mouse PK Study; Po dosing (10 mg/kg)) [ng/mL] |
| --- | --- | --- | --- | --- | --- | --- | --- | --- | --- | --- |
| COc1cc(CN2CCN(C3CC4(C3)CN(c3ccc(C(=O)NS(=O)(=O)c5ccc(NC[C@H]6CC[C@](C)(O)CC6)c([N+](=O)[O-])c5)c(Oc5cnc6[nH]ccc6c5)c3)C4)[C@H](c3ccccc3C(C)C)C2)ccc1C1CC1 [Example 233, 2-((1H-pyrrolo[2,3-b]pyridin-5-yl)oxy)-4-(6-((R)-4-(4-cyclopropyl-3-methoxybenzyl)-2-(2-isopropylphenyl)piperazin-1-yl)-2-azaspiro[3.3]heptan-2-yl)-N-((4-((((1r,4r)-4-hydroxy-4-methylcyclohexyl)methyl)amino)-3-nitrophenyl)sulfonyl)benzamide] | 0.43 | 0.43 | much lower | 2.2 | 0.95 | 17200 | 0.8 | 1 | 17400 | 1100 |
| COc1cc(CN2CCN(C3CC4(C3)CN(c3ccc(C(=O)NS(=O)(=O)c5ccc(NC[C@H]6CC[C@](C)(O)CC6)c([N+](=O)[O-])c5)c(Oc5cnc6[nH]cc(F)c6c5)c3)C4)[C@H](c3ccccc3C(C)C)C2)cc2cc(C)oc12 [Example 338, 2-((3-fluoro-1H-pyrrolo[2,3-b]pyridin-5-yl)oxy)-N-((4-((((1r,4r)-4-hydroxy-4-methylcyclohexyl)methyl)amino)-3-nitrophenyl)sulfonyl)-4-(6-((R)-2-(2-isopropylphenyl)-4-((7-methoxy-2-methylbenzofuran-5-yl)methyl)piperazin-1-yl)-2-azaspiro[3.3]heptan-2-yl)benzamide] | 0.59 | 0.59 | much lower | 2.3 | 1.4 | 42900 | 0.37 | 0.4 | 11600 | 699 |
